From ChEMBL document CHEMBL1134508, “3-(4-aroyl-1H-pyrrol-2-yl)-N-hydroxy-2-propenamides, a new class of synthetic histone deacetylase inhibitors” (J Med Chem, 2001) come the findings set out here.

Assay [1] deals with T1, Histone deacetylase HD2 (Zea mays) (UniProt Q94F81).
T1 sequence (whole entry): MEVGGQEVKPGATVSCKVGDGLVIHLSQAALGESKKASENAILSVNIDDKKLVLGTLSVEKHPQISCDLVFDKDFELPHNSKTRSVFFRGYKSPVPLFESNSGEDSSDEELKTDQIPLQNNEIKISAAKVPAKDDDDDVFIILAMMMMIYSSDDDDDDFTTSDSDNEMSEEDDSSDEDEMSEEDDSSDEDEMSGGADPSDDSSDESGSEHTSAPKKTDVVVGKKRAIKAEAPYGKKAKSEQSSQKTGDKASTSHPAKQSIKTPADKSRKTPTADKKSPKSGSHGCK
The assay can be described thus: Percent inhibition of histone deacetylase activity at 5 mM.

For assay [2], the target named is T1, Histone deacetylase HD2 (Zea mays). The assay can be described thus: Percent inhibition of histone deacetylase activity at 30 uM.
In assay [3] the target is T2, Histone deacetylase HD2 (Zea mays, UniProt Q94F81).
T2 sequence (Q94F81 whole entry): T1 sequence (whole entry)
The assay can be described thus: Inhibitory concentration against histone deacetylase activity.

The target of assay [4] is T2, Histone deacetylase HD2. The assay can be described thus: Experimental anti-HDAC (anti-histone deacetylase) activity of the compound.

Each structure is given as a SMILES string. Square brackets hold non-standard residues; d marks the D form. Peptide text beside a SMILES is read from it. Aoe = N[C@@H](CCCCCC(=O)[C@@H]1CO1)C(=O)O

As to `CCCC(=O)[O-].[Na+]`, the inhibition in assay [1] was 35%.
In assay [2], `Cn1cc(C(=O)c2ccccc2)cc1CCC(=O)NO` came in with an inhibition of 45%. The IC50 against Histone deacetylase HD2 [3] came to 36800 nM. The same compound had a Ki on Histone deacetylase HD2 [4] of 4.37 nM.
Regarding `O=C(CCCCCCC(=O)Nc1ccccc1)NO` [VORINOSTAT], the Ki on Histone deacetylase HD2 [4] is 132 nM.
In assay [2], `Cn1cc(C(=O)c2ccccc2)cc1/C=C/C(=O)NO` came in with an inhibition of 86%. The IC50 at Histone deacetylase HD2 [3] was 3800 nM. The compound also gave a Ki at Histone deacetylase HD2 [4] of 2290 nM.
Turning to `Cc1ccc(C(=O)c2cc(/C=C/C(=O)NO)n(C)c2)cc1`, the inhibition in assay [2] worked out at 86.4%. For the same compound, half-maximal inhibition at Histone deacetylase HD2 [3] (IC50) required 1900 nM. On Histone deacetylase HD2 [4], the affinity corresponds to a Ki of 1120 nM.
Take `CN(C)c1ccc(C(=O)c2cc(/C=C/C(=O)NO)n(C)c2)cc1`: the inhibition in assay [2] is 88%. Moreover, the IC50 on Histone deacetylase HD2 [3] came to 2400 nM. This compound gave a Ki on Histone deacetylase HD2 [4] of 1450 nM.
The corresponding values for `Cn1cc(C(=O)c2ccc(Cl)cc2)cc1/C=C/C(=O)NO` are 87%, 2400 nM and 1450 nM.
On to `Cn1cc(C(=O)c2ccccc2)cc1/C=C/C(=O)NN`, for which, in assay [2], the inhibition was 0.2%.
For the compound `COc1ccc(C(=O)c2cc(/C=C/C(=O)NO)n(C)c2)cc1`, in assay [2], the inhibition stood at 75.2%. On Histone deacetylase HD2 [3], this compound registered a 50% inhibitory concentration (IC50) of 2900 nM. At Histone deacetylase HD2 [4], this compound had a Ki of 1740 nM.
Taken in the same sequence, the figures for `Cn1cc(C(=O)c2ccc([N+](=O)[O-])cc2)cc1/C=C/C(=O)NO` were 78%, 3900 nM and 2340 nM.
Regarding `Cn1cc(C(=O)c2ccccc2)cc1/C=C/C(=O)NCCO`, the inhibition in assay [2] turned out to be 0.9%.
Compound `O=C1N[C@@H](Cc2ccccc2)C(=O)N2CCC[C@@H]2C(=O)N[C@@H](CCCCCC(=O)[C@@H]2CO2)C(=O)N[C@H]1Cc1ccccc1` [TRAPOXIN B] (cyclo(FF[dP][Aoe])) came in with an IC50 against Histone deacetylase HD2 [3] of 10 nM.
On to `Cn1cc(C(=O)c2ccc(F)cc2)cc1/C=C/C(=O)NO`, for which the inhibition in assay [2] was 84%. This compound displayed an IC50 at Histone deacetylase HD2 [3] of 3800 nM. Also, at Histone deacetylase HD2 [4], the Ki is 2290 nM.
